Broadly, the MIC is the lowest concentration that inhibits growth of the organism.

Each structure is given as a SMILES string. In brackets after ≈: the same amount, converted by molar mass. Several values for one entry are separate records, joined by “and”; a condition that tells them apart may be missing. Equal entries are not always repeated. Some results are limits rather than exact numbers.

Some test systems named below: Staphylococcus aureus; Listeria grayi DSM 20601; Escherichia coli D31; Proteus mirabilis; Bacillus thuringiensis; Escherichia coli ML-35p; Candida albicans 820.
Holding throughout (assay): ≥ marks a high value that may be exact or a test limit, other limits are often not marked, values filed in µg/mL are converted to µM
The subject of test [1] is Streptococcus mitis ATCC 903.
For test [2], the system named is Streptococcus gordonii Challis DL1.
In test [3] the test system is Streptococcus mutans UA159.
The test system of test [4] is Pseudomonas aeruginosa PAK.
Test [5] relates to Streptococcus sanguinis NY101.
Test [6] deals with Staphylococcus aureus NBRC 13276.
The test system of test [7] is Escherichia coli DH5alpha.
The subject of test [8] is Pseudomonas aeruginosa NBRC 13275.
Test [9] relates to Listeria monocytogenes DSM 20600.
Test [10] concerns Micrococcus luteus DSM 20030.
Test [11] deals with Listeria fleischmannii DSM 24998.
Test [12] relates to Latilactobacillus sakei 706.
The test system of test [13] is Carnobacterium maltaromaticum UI49.
Test [14] has as its system Lacticaseibacillus casei NCDO 2713.
Test [15] deals with Pediococcus pentosaceus Pac1.0.
In test [16] the test system is Pediococcus acidilactici CH.
The test system of test [17] is Lacticaseibacillus casei subsp. casei NCDO 161.
Test [18] has as its system Lactiplantibacillus plantarum UI50.
Test [19] has as its system Latilactobacillus curvatus 89.
For test [20], the system named is Lactiplantibacillus plantarum 965.
For test [21], the system named is Weissella viridescens NCDO 1655.
The test system of test [22] is Latilactobacillus sakei NCDO 2714.
Test [23] has as its system Pediococcus pentosaceus NCDO 990.
Test [24] deals with Staphylococcus saprophyticus.
Test [25] has as its system Enterobacter cloacae ATCC 23355.
Test [26] deals with Pseudomonas aeruginosa ATCC 15442.
Test [27] relates to Staphylococcus aureus ATCC 6538.
The subject of test [28] is Escherichia coli CCT 1371.
Test [29] deals with Staphylococcus epidermidis.
For test [30], the system named is Bacillus subtilis CCT 2471.
Test [31] has as its system Escherichia coli ATCC 25922.
In test [32] the test system is Staphylococcus aureus ATCC 25923.
The subject of test [33] is Staphylococcus aureus ATCC 33591.
In test [34] the test system is Listeria monocytogenes EGD.

For the compound `CC[C@H](C)[C@H](NC(=O)CNC(=O)CNC(=O)CNC(=O)[C@H](Cc1ccccc1)NC(=O)[C@H](CCCN=C(N)N)NC(=O)[C@H](Cc1cnc[nH]1)NC(=O)[C@@H](NC(=O)[C@H](Cc1ccccc1)NC(=O)[C@H](Cc1cnc[nH]1)NC(=O)[C@H](CCCCN)NC(=O)[C@@H](NC(=O)[C@@H](N)Cc1ccccc1)[C@@H](C)CC)[C@@H](C)CC)C(=O)N[C@@H](CCCCN)C(=O)N[C@@H](CCC(N)=O)C(=O)N[C@@H](CC(C)C)C(=O)N[C@@H](CC(C)C)C(=O)N[C@@H](Cc1cnc[nH]1)C(=O)N[C@@H](Cc1ccccc1)C(=O)N[C@@H](Cc1ccccc1)C(=O)N[C@@H](CCC(N)=O)C(=O)N[C@@H](CCCN=C(N)N)C(=O)N[C@@H](Cc1ccccc1)C(N)=O` [FIKHFIHRFGGGIKQLLHFFQRF], the MIC in the test with Staphylococcus aureus was 21.7 µM (≈ 62.5 µg/mL); in test [1], 5.57 µM (≈ 16 µg/mL); in [2] it was 11.1 µM (≈ 32 µg/mL); in [3], 2.78 µM (≈ 8 µg/mL); in [4], no less than 43.5 µM; in test [5], 11.1 µM (≈ 32 µg/mL).

Turning to `CC[C@H](C)[C@H](NC(=O)CNC(C)=O)C(=O)NCC(=O)N[C@@H](CCCCN)C(=O)N[C@@H](Cc1ccccc1)C(=O)N[C@@H](CC(C)C)C(=O)N[C@@H](Cc1cnc[nH]1)C(=O)N[C@@H](CO)C(=O)N[C@@H](C)C(=O)N[C@@H](CCCCN)C(=O)N[C@@H](CCCCN)C(=O)N[C@@H](Cc1ccccc1)C(=O)NCC(=O)N[C@@H](CCCCN)C(=O)N[C@@H](C)C(=O)N[C@@H](Cc1ccccc1)C(=O)N[C@H](C(=O)NCC(=O)N[C@@H](CCC(=O)O)C(=O)N[C@H](C(=O)N[C@@H](CCSC)C(=O)N[C@@H](CC(N)=O)C(=O)N[C@@H](CO)C(N)=O)[C@@H](C)CC)C(C)C` [GIGKFLHSAKKFGKAFVGEIMNS], the values for the MIC in test [6], in test [7] and in test [8] were no less than 200 µM, no less than 50 µM and 25 µM (≈ 62.7 µg/mL), respectively.

Consider `CC[C@H](C)[C@H](N)C(=O)N[C@@H](Cc1ccccc1)C(=O)N[C@@H](CCCCN)C(=O)N[C@@H](C)C(=O)N[C@H](C(=O)N[C@@H](Cc1c[nH]c2ccccc12)C(=O)N[C@@H](CO)C(=O)NCC(=O)N[C@H](C(=O)N[C@@H](CCCCN)C(=O)N[C@@H](CO)C(=O)N[C@@H](CC(C)C)C(=O)N[C@@H](Cc1ccccc1)C(=O)O)[C@@H](C)CC)[C@@H](C)CC` [IFKAIWSGIKSLF], for which the MIC against Listeria grayi DSM 20601 amounted to 2 µM (≈ 3.02 µg/mL); against Escherichia coli D31, 15 µM (≈ 22.6 µg/mL); in test [9], 2 µM (≈ 3.02 µg/mL); in test [10] it was 2 µM (≈ 3.02 µg/mL); in test [11] it was 2 µM (≈ 3.02 µg/mL).

Turning to `CC[C@H](C)[C@H](NC(=O)[C@H](C)NC(=O)[C@@H](NC(=O)[C@H](C)NC(=O)CNC(=O)[C@H](CCSC)NC(=O)[C@H](CCC(N)=O)NC(=O)[C@H](CC(C)C)NC(=O)[C@H](CO)NC(=O)[C@H](Cc1ccc(O)cc1)NC(=O)[C@H](C)NC(=O)[C@H](CO)NC(=O)[C@H](CO)NC(=O)[C@@H](N)CCCCN)[C@@H](C)O)C(=O)N[C@@H](CCCCN)C(=O)N[C@@H](CCC(N)=O)C(=O)N[C@H](C(=O)N[C@@H](CCCCN)C(=O)N[C@@H](CCCCN)C(=O)N[C@@H](CC(C)C)C(=O)N[C@@H](Cc1ccccc1)C(=O)N[C@@H](CCCCN)C(=O)N[C@@H](CCCCN)C(=O)N[C@@H](Cc1c[nH]c2ccccc12)C(=O)NCC(=O)N[C@@H](Cc1c[nH]c2ccccc12)C(=O)O)C(C)C` [KSSAYSLQMGATAIKQVKKLFKKWGW], the MIC in test [12] was found to be 0.5 µM (≈ 1.49 µg/mL); in test [13], 6 µM (≈ 17.9 µg/mL); in test [14], 6 µM (≈ 17.9 µg/mL); in [15], 0.1 µM (≈ 0.299 µg/mL); in test [16], 0.5 µM (≈ 1.49 µg/mL); in [17], 0.25 µM (≈ 0.746 µg/mL). Moreover, the MIC was found to be 6 µM (≈ 17.9 µg/mL) in test [18]; 0.5 µM (≈ 1.49 µg/mL) in test [19]; 0.3 µM (≈ 0.896 µg/mL) in test [20]; 0.02 µM (≈ 0.0597 µg/mL) in test [21]; 0.06 µM (≈ 0.179 µg/mL) in [22]; 6 µM (≈ 17.9 µg/mL) in test [23].

Take `CC[C@H](C)[C@H](NC(=O)CNC(=O)[C@H](CCCCN)NC(=O)[C@H](CC(C)C)NC(=O)[C@H](CC(N)=O)NC(=O)[C@@H](N)CC(C)C)C(=O)N[C@@H](Cc1ccccc1)C(=O)N[C@@H](CCCCN)C(=O)N[C@@H](CCCCN)C(=O)N[C@H](C(=O)N[C@@H](C)C(=O)N[C@@H](CO)C(=O)N[C@@H](CC(C)C)C(=O)N[C@@H](CC(C)C)C(=O)N[C@H](C(=O)O)[C@@H](C)O)C(C)C` [LNLKGIFKKVASLLT]: the minimal inhibitory concentration (MIC) is 6 µM (≈ 9.87 µg/mL) in test [24]; no less than 60 µM in test [25]; 30 µM (≈ 49.4 µg/mL) in test [26]; greater than 60 µM in test [27]; 6 µM (≈ 9.87 µg/mL) in test [28]; no less than 60 µM in [29]. The MIC was no less than 60 µM in [30]; no less than 60 µM with Proteus mirabilis; no less than 60 µM with Bacillus thuringiensis; 6 µM (≈ 9.87 µg/mL) in test [31]; 6 µM (≈ 9.87 µg/mL) in test [32].

Consider `CC[C@H](C)[C@@H]1NC(=O)[C@H](CC(N)=O)NC(=O)[C@@H]2CSSC[C@@H]3NC(=O)[C@H](CCCN=C(N)N)NC(=O)[C@@H](NC(=O)[C@@H](NC(=O)[C@@H](N)CCCN=C(N)N)[C@@H](C)O)CSSC[C@@H](C(=O)N[C@@H](CCCN=C(N)N)C(=O)O)NC(=O)[C@H](CSSC[C@H](NC(=O)[C@H](CCCN=C(N)N)NC(=O)CNC(=O)[C@H](CC(C)C)NC(=O)[C@H](CCCN=C(N)N)NC3=O)C(=O)N[C@@H](CO)C(=O)N[C@@H](CCCN=C(N)N)C(=O)N[C@@H](CCCN=C(N)N)C(=O)N[C@@H](CCC(=O)O)C(=O)N[C@@H](CO)C(=O)N[C@@H](Cc3ccc(O)cc3)C(=O)N[C@@H](CO)C(=O)NCC(=O)N[C@@H](CO)C(=O)N2)NC(=O)[C@H](CC(C)C)NC(=O)[C@H](CO)NC(=O)[C@H](Cc2ccc(O)cc2)NC(=O)[C@H]([C@@H](C)CC)NC(=O)[C@H](CCCN=C(N)N)NC(=O)CNC(=O)[C@H](CC(N)=O)NC1=O` [RTCRCRLGRCSRRESYSGSCNINGRIYSLCCR], for which the MIC in test [33] was 4.5 µM and 7.8 µM; against Escherichia coli ML-35p, 2 µM and 3.1 µM; against Candida albicans 820, 2.6 µM and 3.8 µM; in [34], 1.2 µM and 1.9 µM.

The record behind these values is DBAASP.
